# Source: ChEMBL document CHEMBL1138682, “Fluorescent pirenzepine derivatives as potential bitopic ligands of the human M1 muscarinic receptor” (J Med Chem, 2004)
# How the values were obtained:
# [1] = molecular target: T1, Muscarinic acetylcholine receptor M1 (Homo sapiens, UniProt P11229); test: Inhibition of [3H]QNB binding to human muscarinic receptor M1
# T1 sequence (P11229 whole entry): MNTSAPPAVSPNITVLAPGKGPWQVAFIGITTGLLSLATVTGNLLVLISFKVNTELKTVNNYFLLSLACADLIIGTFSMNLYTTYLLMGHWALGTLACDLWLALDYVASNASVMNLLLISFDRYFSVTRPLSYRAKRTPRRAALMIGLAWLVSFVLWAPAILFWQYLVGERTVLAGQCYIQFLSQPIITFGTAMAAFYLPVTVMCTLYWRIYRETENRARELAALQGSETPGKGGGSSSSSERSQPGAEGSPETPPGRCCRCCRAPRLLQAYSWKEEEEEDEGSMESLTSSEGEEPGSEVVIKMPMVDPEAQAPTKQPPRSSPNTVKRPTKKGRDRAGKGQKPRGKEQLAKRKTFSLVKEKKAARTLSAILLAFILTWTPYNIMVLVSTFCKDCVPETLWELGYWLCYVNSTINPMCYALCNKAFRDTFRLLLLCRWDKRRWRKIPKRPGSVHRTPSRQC
# [2] = molecular target: T1, Muscarinic acetylcholine receptor M1; test: Apparent dissociation constant for human muscarinic receptor M1 from FRET based binding assay
# [3] = molecular target: T2, Muscarinic acetylcholine receptor M1 (Homo sapiens) (UniProt P11229); test: Dissociation rate constant for human muscarinic receptor at 200 nM with 100 uM brucine
# T2 sequence (whole entry): T1 sequence (P11229 whole entry)
# [4] = molecular target: T2, Muscarinic acetylcholine receptor M1 (Homo sapiens)
# Description: Apparent dissociation constant for human muscarinic receptor M1 from FRET binding assay
# [5] = molecular target: T2, Muscarinic acetylcholine receptor M1 (Homo sapiens); test: Dissociation rate constant for human muscarinic receptor at 200 nM with 500 uM brucine
# [6] = molecular target: T2, Muscarinic acetylcholine receptor M1 (Homo sapiens); conditions: 300 nM
# Description: Dissociation rate constant for human muscarinic receptor at 300 nM with 100 uM brucine
# [7] = molecular target: T2, Muscarinic acetylcholine receptor M1 (Homo sapiens); conditions: 300 nM; remark: listed apart in the source
# Description: Dissociation rate constant for human muscarinic receptor at 300 nM with 500 uM brucine
# [8] = molecular target: T2, Muscarinic acetylcholine receptor M1 (Homo sapiens); conditions: 100 nM
# Description: Dissociation rate constant for human muscarinic receptor at 100 nM with 500 uM brucine
# [9] = molecular target: T2, Muscarinic acetylcholine receptor M1 (Homo sapiens); conditions: 100 nM; remark: listed apart in the source
# Description: Dissociation rate constant for human muscarinic receptor at 100 nM with 100 uM brucine
# [10] = molecular target: T2, Muscarinic acetylcholine receptor M1 (Homo sapiens); test: Dissociation rate constant for human muscarinic receptor at 500 nM with 100 uM brucine
# [11] = molecular target: T2, Muscarinic acetylcholine receptor M1 (Homo sapiens); test: Dissociation rate constant for human muscarinic receptor at 500 nM with 500 uM brucine
SMILES,Ki [1] [nM],Kd [2] [nM],Dissociation rate constant [3],E [4],Dissociation rate constant [5],Dissociation rate constant [6],Dissociation rate constant [7],Dissociation rate constant [8],Dissociation rate constant [9],Dissociation rate constant [10],Dissociation rate constant [11]
O=C(CCC1=[N+]2C(=Cc3ccc(-c4cccs4)n3[B-]2(F)F)C=C1)NCCN1CCN(CC(=O)N2c3ccccc3C(=O)Nc3cccnc32)CC1,> 1000,–,–,–,–,–,–,–,–,–,–
O=C(CCCCCNC(=O)CCC1=[N+]2C(=Cc3ccc(-c4cccs4)n3[B-]2(F)F)C=C1)NCCCCCC(=O)NCCCCN1CCN(CC(=O)N2c3ccccc3C(=O)Nc3cccnc32)CC1,55.1,12.7,0.00144 1/S,0.51,0.00146 1/S,–,–,–,–,–,–
CCN1/C(=C/C=C/C2N(CCCCCC(=O)NCCOCCOCCN3CCN(CC(=O)N4c5ccccc5C(=O)Nc5cccnc54)CC3)c3ccc(S(=O)(=O)O)cc3C2(C)C)C(C)(C)c2cc(S(=O)(=O)O)ccc21 (configuration not stated),135,35.7,–,0.6,–,0.00039 1/S,0.000353 1/S,–,–,–,–
O=C(CCC1=[N+]2C(=Cc3ccc(-c4cccs4)n3[B-]2(F)F)C=C1)NCCOCCOCCN1CCN(CC(=O)N2c3ccccc3C(=O)Nc3cccnc32)CC1,45.4,21.9,0.00025 1/S,0.6,0.00013 1/S,–,–,–,–,–,–
O=C(CCC1=[N+]2C(=Cc3ccc(-c4cccs4)n3[B-]2(F)F)C=C1)NCCCCCCN1CCN(CC(=O)N2c3ccccc3C(=O)Nc3cccnc32)CC1,8.8,12.9,–,0.63,–,–,–,7.2e-05 1/S,0.0002 1/S,–,–
O=C(CCC1=[N+]2C(=Cc3ccc(-c4cccs4)n3[B-]2(F)F)C=C1)NCCOCCOCCOCCOCCOCCOCCN1CCN(CC(=O)N2c3ccccc3C(=O)Nc3cccnc32)CC1,8.9,4.1,–,0.53,–,–,–,0.00025 1/S,0.00023 1/S,–,–
CNC(=O)CCC1=[N+]2C(=Cc3ccc(-c4cccs4)n3[B-]2(F)F)C=C1,> 1000,–,–,–,–,–,–,–,–,–,–
CCN(CC)c1ccc2c(-c3ccc(S(=O)(=O)NCCCCCC(=O)NCCOCCOCCN4CCN(CC(=O)N5c6ccccc6C(=O)Nc6cccnc65)CC4)cc3S(=O)(=O)[O-])c3ccc(=[N+](CC)CC)cc-3oc2c1,53.5,18.7,–,0.68,–,–,–,–,–,0.00062 1/S,0.00051 1/S
